Experimental data reported in patent US20080113915A1, “SAPAP3 knockout mouse and clinical modeling associated with the SAPAP3 gene” (Duke University, priority 2006, published 2008).

What was measured:
SAPAP3 knockout mice [1] = assay: Light-dark box emergence test after Fluoxetine treatment; type: in vivo, mouse; conditions: after 6 days of treatment with 5 mg/kg, intraperitoneal
Experimental: In the light dark box test, SAPAP3 knockout mice and wild type mice were individually placed into the dark half a two chamber box. The box contained a completely dark chamber and a chamber lit with a bright light. At time=0, the door was opened between the two chambers.
Following videotaping, the four groups of mice were tested on the light-dark box emergence test.

SAPAP3 knockout mice [2] = assay: Videotaped grooming behaviour scoring after Fluoxetine treatment; type: in vivo, mouse; conditions: 5 mg/kg daily intraperitoneal, after six days, vs SAPAP3 knockout vehicle control group
Experimental: To ascertain the source of the lesions quantitative, video studies of the knockout mice were performed. Groups of 10 wild type mice and 10 knockout mice were housed such that each mouse was isolated in a single cage. Following an acclimatization period to individual housing, each mouse was videotaped for 24 hours. Three, four-hour sections (10 AM-2 PM, 6 PM-10 PM, and 2 AM-6 AM) of each 24-hour period were watched and scored for a panel of behaviors: grooming, drinking/eating, sleeping, rearing, digging/shifting, or alert/active. When analyzed on either a “time spent” or “number of bouts engaged in” basis, it was obvious that SAPAP3 knockout mice groomed far more than their wild type counterparts in every time period examined (see FIGS. 3 and 4).
Two cohorts of eight SAPAP3 knockout mice and two cohorts of eight wild type mice were housed in isolation and allowed to acclimate as in Example 2. One cohort of each genotype served as an experimental group and the other as a vehicle control group. The experimental groups were given a daily intraperitoneal injection of 5 mg/kg Fluoxetine for fourteen days. The control groups were given a daily vehicle injection under the same conditions.
After six days, mice from each group were individually videotaped and their behaviors scored as in Example 2. […]

SAPAP3 knockout animals = conditions: mouse, in vivo, 10 mg/kg
SAPAP3 knockout mice [3] = assay: Semi-quantitative scoring of lesion severity (scale 0-4); type: in vivo, mouse
Experimental: Four cohorts of eight SAPAP3 knockout mice and four cohorts of eight wild type mice were housed in isolation and allowed to acclimate as above. One cohort of each genotype served as a 5 mg/kg Fluoxetine experimental group, one as a 10 mg/kg Fluoxetine experimental group, one as a vehicle control group, and one as an uninjected control group.

[4] = share of SAPAP3 KO mice, Fluoxetine groups (5 and 10 mg/kg) combined, at two weeks

SMILES: CNCCC(Oc1ccc(C(F)(F)F)cc1)c1ccccc1 (stereo not shown) [Fluoxetine]
- performance on the light-dark box emergence test (latency to leave dark chamber) (SAPAP3 knockout mice [1]): significantly improved
- bouts of grooming (SAPAP3 knockout mice [2]): far fewer bouts of grooming
- toxicity to SAPAP3 knockout animals relative to wild type controls (SAPAP3 knockout animals): progressively more toxic
- lesion severity (scale of 0-4) (SAPAP3 knockout mice [3]; SAPAP3 knockout mice, 5 and 10 mg/kg groups combined vs vehicle and uninjected groups combined, over a 2 week period): stabilized or improved lesions
- Lesion severity: Improve (SAPAP3 knockout mice [3]; [4]): 28.6%
- Lesion severity: No Change (SAPAP3 knockout mice [3]; [4]): 71.4%
- Lesion severity: Worse (SAPAP3 knockout mice [3]; [4]): 0%
